Values joined by “and” are separate entries in the source; they are usually repeats but may differ in a detail not shown here. Equal entries are not always repeated.
Settings: Crystal, Closed cell (Static) method

c1ccc2ccccc2c1 [naphthalene]
Settings | vapor or sublimation pressure
258.48 K | 0.00011 kPa
258.49 K | 0.00011 kPa
263.48 K | 0.00022 kPa
263.49 K | 0.00023 kPa
268.48 K | 0.00042 kPa and 0.00041 kPa and 0.00043 kPa
273.48 K | 0.00078 kPa and 0.00077 kPa
273.49 K | 0.00078 kPa and 0.00077 kPa
273.68 K | 0.0008 kPa and 0.00081 kPa
278.48 K | 0.00137 kPa and 0.00138 kPa
278.49 K | 0.00138 kPa [middle of 4 runs]
283.49 K | 0.00241 kPa
288.49 K | 0.00411 kPa and 0.0041 kPa
293.49 K | 0.00688 kPa
298.49 K | 0.0114 kPa and 0.0113 kPa
303.5 K | 0.0183 kPa and 0.0182 kPa
308.51 K | 0.029 kPa
313.52 K | 0.0454 kPa and 0.0455 kPa
